Data from patent US7858657B2 (Proix Pharmaceutical Corp., priority 2004, dated 2010).
Read-outs that look alike come from different tables or passages of the source.

Tests used:
[1] = system: HT-29 xenograft phosphor-Akt; test: Inhibition of HT-29 xenograft phospho-Akt by wortmannin analogs (pharmacodynamics); type: in vivo
Procedure: The pharmacodynamics of various wortmannin analogs were tested. […] PX-866 was administered intraperitoneal, intravenously and orally.

OvCaR-3 ovarian = test: Antitumor activity of wortmannin analogs, OvCaR-3 ovarian tumor (Table 1); type: in vivo; details: initial tumor vol 120 mm^3, 8 mg/kg/day ip Q1D × 9
HT-29 colon [2] = test: Antitumor activity of wortmannin analogs, HT-29 colon tumor (Table 1); type: in vivo; details: initial tumor vol 170 mm^3, 12 mg/kg/day ip Q1D × 9
Panc-1 pancreatic = test: Antitumor activity of cytotoxic drugs alone or combined with PX-866, Panc-1 pancreatic (Table 2); type: in vivo; details: for Alone Growth delay days / Alone TGI % / Alone log cell kill: size 75 mm^3
A-549 lung = test: Antitumor activity of cytotoxic drugs alone or combined with PX-866, A-549 lung (Table 2); type: in vivo
HT-29 colon [3] = test: Antitumor activity of cytotoxic drugs alone or combined with PX-866, HT-29 colon (Table 2); type: in vivo; details: for Alone Growth delay days / Alone TGI % / Alone log cell kill: size 150 mm^3
p110β/p85α = target: T1, p110β/p85α (Homo sapiens, UniProt P42338); test: Inhibition of recombinant PtdIns-3-kinase, [32P]-ATP dependent phosphorylation of PtdIns; type: biochemical; details: recombinant enzyme
T1 construct: purchased Upstate (Charlottesville, Va.)
T1 sequence (P42338 whole entry): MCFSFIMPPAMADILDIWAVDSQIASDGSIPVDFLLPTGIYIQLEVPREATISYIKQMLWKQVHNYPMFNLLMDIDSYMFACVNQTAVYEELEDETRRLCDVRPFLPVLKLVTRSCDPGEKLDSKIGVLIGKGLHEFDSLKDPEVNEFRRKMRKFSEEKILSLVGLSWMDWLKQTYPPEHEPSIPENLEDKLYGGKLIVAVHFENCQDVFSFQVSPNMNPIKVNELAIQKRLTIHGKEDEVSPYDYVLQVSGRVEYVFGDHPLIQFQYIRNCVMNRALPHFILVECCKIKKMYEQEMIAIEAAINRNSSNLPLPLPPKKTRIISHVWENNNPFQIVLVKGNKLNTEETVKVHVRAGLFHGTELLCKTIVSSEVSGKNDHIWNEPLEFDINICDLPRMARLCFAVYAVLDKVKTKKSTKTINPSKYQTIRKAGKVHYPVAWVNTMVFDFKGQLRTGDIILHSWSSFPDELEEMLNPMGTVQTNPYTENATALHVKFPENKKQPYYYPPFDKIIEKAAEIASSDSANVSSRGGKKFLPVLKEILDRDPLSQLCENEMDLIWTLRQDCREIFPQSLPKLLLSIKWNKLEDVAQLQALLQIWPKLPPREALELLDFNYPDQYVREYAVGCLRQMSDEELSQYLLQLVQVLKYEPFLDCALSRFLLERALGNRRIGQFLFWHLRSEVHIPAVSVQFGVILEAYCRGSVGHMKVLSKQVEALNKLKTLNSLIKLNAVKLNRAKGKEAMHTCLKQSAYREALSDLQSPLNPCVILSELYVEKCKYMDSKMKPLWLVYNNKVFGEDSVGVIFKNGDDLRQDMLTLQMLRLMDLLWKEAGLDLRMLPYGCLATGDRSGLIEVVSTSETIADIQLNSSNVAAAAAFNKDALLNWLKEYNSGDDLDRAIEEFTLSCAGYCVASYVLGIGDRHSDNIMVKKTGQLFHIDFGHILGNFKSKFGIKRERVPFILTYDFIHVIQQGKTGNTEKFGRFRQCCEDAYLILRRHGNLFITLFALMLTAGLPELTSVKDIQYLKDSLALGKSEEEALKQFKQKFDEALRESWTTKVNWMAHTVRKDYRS
T1 sequence (P27986 whole entry partner): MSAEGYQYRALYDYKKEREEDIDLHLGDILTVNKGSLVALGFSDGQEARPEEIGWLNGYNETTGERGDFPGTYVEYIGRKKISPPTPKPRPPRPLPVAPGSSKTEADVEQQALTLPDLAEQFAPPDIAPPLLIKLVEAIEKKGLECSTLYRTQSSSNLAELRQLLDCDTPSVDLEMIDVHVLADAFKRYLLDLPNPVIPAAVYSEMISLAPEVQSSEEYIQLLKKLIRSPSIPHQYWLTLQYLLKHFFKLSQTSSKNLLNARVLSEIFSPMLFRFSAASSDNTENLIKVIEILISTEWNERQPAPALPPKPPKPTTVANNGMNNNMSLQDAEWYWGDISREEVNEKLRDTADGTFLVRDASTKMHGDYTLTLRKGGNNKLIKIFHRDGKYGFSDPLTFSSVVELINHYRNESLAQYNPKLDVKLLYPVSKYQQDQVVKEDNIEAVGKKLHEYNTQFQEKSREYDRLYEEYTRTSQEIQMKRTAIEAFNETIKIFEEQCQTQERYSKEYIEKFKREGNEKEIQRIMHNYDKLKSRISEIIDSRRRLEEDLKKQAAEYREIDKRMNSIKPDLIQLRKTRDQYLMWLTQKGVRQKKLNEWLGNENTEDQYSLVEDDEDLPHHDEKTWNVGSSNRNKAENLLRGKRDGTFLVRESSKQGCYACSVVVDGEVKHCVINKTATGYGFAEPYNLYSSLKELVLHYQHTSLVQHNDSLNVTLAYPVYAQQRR
Description: (§1) Materials and Methods. Compounds. […] Rabbit purified anti-phosphoSer473-Akt antibody, anti-Akt antibody, antiphospho Tyr1086-EGF-receptor antibody and anti-EGFR antibody were obtained from Cell Signaling Technology (Beverly, Mass.). Human recombinant p110α/p85α, p110β/p85α, p120 (and p110*/p85α PtdIns-3-kinases were obtained from Upstate (Charlottesville, Va.). Metformin hydrochloride was obtained from Spectrum Chemical (Gardena, Calif.), pioglitazone hydrochloride and recombinant human insulin from Sigma Chemical (St. Louis).
(§2) Measurement of PtdIns-3-kinase.

p110δ/p85α = target: T2, p110δ/p85α (Homo sapiens, UniProt O00329); test: as above; type: biochemical; details: recombinant enzyme
T2 construct: purchased Upstate (Charlottesville, Va.)
T2 sequence (O00329 whole entry): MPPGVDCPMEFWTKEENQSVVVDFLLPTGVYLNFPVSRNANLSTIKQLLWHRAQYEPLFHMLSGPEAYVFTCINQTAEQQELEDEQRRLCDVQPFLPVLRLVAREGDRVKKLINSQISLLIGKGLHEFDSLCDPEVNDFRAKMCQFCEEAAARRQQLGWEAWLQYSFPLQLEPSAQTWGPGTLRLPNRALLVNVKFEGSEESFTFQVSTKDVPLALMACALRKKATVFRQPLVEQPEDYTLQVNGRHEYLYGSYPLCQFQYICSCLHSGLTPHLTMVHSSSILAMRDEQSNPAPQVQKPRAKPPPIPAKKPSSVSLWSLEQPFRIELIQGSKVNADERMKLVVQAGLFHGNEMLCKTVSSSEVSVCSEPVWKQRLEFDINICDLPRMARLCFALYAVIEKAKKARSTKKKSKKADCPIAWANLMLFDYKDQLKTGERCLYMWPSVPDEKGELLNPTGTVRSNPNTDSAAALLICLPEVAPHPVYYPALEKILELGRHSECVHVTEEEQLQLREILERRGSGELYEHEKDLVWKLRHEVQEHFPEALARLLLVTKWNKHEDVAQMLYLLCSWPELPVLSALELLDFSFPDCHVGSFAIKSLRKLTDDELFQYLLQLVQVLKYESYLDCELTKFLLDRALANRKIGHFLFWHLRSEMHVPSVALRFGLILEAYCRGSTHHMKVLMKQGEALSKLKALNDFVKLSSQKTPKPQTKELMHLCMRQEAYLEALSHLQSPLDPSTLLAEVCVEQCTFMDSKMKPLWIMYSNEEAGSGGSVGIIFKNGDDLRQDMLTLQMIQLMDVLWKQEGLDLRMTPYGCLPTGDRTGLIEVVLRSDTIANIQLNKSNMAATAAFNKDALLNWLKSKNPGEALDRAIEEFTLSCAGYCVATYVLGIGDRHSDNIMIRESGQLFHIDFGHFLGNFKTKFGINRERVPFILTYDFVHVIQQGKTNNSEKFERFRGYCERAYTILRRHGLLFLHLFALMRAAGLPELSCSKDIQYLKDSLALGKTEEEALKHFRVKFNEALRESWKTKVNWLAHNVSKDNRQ
T2 sequence (P27986 whole entry partner): as the sequence (P27986 whole entry partner) above
Description: as §1, §2

p120γ = target: T3, p120γ (Homo sapiens, UniProt P48736); test: as above; type: biochemical; details: recombinant enzyme
T3 construct: purchased Upstate (Charlottesville, Va.)
T3 sequence (P48736 whole entry): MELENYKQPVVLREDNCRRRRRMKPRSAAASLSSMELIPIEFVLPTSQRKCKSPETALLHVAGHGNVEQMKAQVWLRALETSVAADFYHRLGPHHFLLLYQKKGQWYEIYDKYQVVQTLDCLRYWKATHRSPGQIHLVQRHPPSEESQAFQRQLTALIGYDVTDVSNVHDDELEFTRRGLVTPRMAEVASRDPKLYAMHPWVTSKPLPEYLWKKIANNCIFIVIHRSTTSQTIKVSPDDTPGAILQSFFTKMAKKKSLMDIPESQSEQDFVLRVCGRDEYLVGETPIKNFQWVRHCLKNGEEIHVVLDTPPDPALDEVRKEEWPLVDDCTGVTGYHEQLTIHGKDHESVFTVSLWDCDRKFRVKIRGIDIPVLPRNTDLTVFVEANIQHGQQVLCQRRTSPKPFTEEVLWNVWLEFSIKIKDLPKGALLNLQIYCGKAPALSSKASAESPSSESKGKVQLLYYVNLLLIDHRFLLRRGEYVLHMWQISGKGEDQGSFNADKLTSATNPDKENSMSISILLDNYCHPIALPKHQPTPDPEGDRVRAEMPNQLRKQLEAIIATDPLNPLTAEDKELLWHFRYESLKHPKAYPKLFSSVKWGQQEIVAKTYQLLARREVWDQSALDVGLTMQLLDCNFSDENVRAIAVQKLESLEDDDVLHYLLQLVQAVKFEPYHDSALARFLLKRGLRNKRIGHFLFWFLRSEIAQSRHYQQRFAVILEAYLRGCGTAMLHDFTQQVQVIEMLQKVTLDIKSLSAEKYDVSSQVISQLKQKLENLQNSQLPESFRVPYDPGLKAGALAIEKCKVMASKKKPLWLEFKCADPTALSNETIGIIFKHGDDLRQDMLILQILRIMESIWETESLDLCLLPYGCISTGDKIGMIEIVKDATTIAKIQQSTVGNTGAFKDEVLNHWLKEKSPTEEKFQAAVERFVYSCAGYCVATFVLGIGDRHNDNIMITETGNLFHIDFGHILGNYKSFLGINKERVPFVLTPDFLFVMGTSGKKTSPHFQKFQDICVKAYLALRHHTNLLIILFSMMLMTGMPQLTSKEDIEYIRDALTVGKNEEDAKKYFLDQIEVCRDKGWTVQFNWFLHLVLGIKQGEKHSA
Description: as §1, §2

[4] = system: phospho-Akt in A-549 cells; test: cells; type: cell-based; details: Homo sapiens, A549; A-549 cells in media containing 10% fbs; read-out: IC50, inhibition of phospho-Akt
Procedure: (§3) Cells. […] All cell lines were tested to be mycoplasma free using a PCR ELISA kit (Roche Diagnostics Inc., Indianapolis, Ind.).
as §2

A-549 cells = type: cell-based, human; details: PX-866 at concentrations up to 100 nM
Procedure: as §3

[5] = system: tumor phospho-EGFR (A-549 tumor xenografts); type: in vivo, scid mice
[6] = Toxicity of long term PX-866 administration, scid mice; type: in vivo; details: for ALT: 24 hr after last dose, mean of 4 mice ± SE; for gain in body weight as % of the control weight gain: over the 4 weeks of treatment
Procedure: (§4) Toxicity Studies. […] The mice were killed 24 hr after the last dose and changes in body weight, blood lymphocyte, neutrophil, red blood cell, platelet counts, serum glucose, aspartate amino transferase (AST), and amino alanine transferase (ALT) were measured.
Values are the mean of 4 mice per group±SE.

[7] = Toxicity studies, blood counts in C57B1/6 mice; type: in vivo; details: PX-866 3 mg/kg po every other day for 15 doses
Procedure: as §4

[8] = Plasma insulin levels after PX-866; type: in vivo, C57B1/6 mice; details: PX-866 single dose of 10 mg/kg po (FIG. 10)
Description: PX-866 and glucose tolerance.

[9] = Nonfasting glucose levels after long term PX-866; type: in vivo, mice; details: PX-866 9 mg/kg iv every other day for 15 doses; ±S.E., n=4
[10] = system: A-673 thabdomyosarcom xenografts; test: Antitumor effect of PX-866 with bevacizumab, A-673 xenografts; type: in vivo; details: PX-866 intravenously or orally every three days in combination with bevacizumab (FIG. 14)
Procedure: PX-866 was administered at varying doses intravenously or orally every three days alone or in combination with bevacizumab.

[11] = PX-866 iv 15 mg/kg Q3D × 3 combined with gemcitabine ip 150 mg/kg Q3D × 3
[12] = PX-866 po 5 mg/kg Q3D × 3 combined with gemcitabine ip 150 mg/kg Q3D × 3
[13] = PX-866 ip 6 mg/kg QD × 5 combined with cisplatin ip 1 mg/kg QD × 5
[14] = size 300 mm^3, PX-866 ip 6 mg/kg QD × 5
[15] = PX-866 iv 10 mg/kg Q2D × 3 combined with cisplatin ip 2.5 mg/kg Q2D × 3
[16] = PX-866 po 2.5 mg/kg Q2D × 3 combined with cisplatin ip 2.5 mg/kg Q2D × 3
[17] = PX-866 1.5 mg/kg po every other day for 14 doses, mean ± SE
[18] = PX-866 3 mg/kg po every other day for 14 doses, mean ± SE
[19] = PX-866 10 mg/kg iv every other day for 14 doses, mean ± SE

C=CCN(/C=C1/C(=O)O[C@H](COC)[C@@]2(C)C1=C(O)C(=O)C1=C2[C@H](OC(C)=O)C[C@]2(C)C(=O)CC[C@@H]12)CC=C [PX-866]
inhibition of HT-29 xenograft phosphor-Akt ([1]; dose dependency, PX-866, PX-867 and PX-881 compared (FIG. 1A)): greatest inhibitory activity | inhibition of HT-29 xenograft phosphor-Akt over time by route ([1]; oral compared with intraperitoneal and intravenous (FIG. 1B)): more consistent inhibition over a longer period of time | Growth Delay (OvCaR-3 ovarian): 12 days | Log10 cell kill (OvCaR-3 ovarian): 1.2 | T/C % (optimal test/control) (OvCaR-3 ovarian; day 40): 30 (40) % | Growth Delay (HT-29 colon [2]): 6 days | Log10 cell kill (HT-29 colon [2]): 0.4 | T/C % (optimal test/control) (HT-29 colon [2]; day 16): 39 (16) % | Combined Growth delay days (Panc-1 pancreatic; [11]): 8 days | Combined TGI % (Panc-1 pancreatic; [11]): 49% | Combined log cell kill (Panc-1 pancreatic; [11]): 0.2 | Combined Growth delay days (Panc-1 pancreatic; [12]): 19 days | Combined TGI % (Panc-1 pancreatic; [12]): 60% | Combined log cell kill (Panc-1 pancreatic; [12]): 0.5 | Alone Growth delay days (Panc-1 pancreatic; PX-866 iv 15 mg/kg Q3D × 3): 4 days | Alone TGI % (Panc-1 pancreatic; PX-866 iv 15 mg/kg Q3D × 3): 16% | Alone log cell kill (Panc-1 pancreatic; PX-866 iv 15 mg/kg Q3D × 3): 0.1 | Alone Growth delay days (Panc-1 pancreatic; PX-866 po 5 mg/kg Q3D × 3): 0 days | Alone TGI % (Panc-1 pancreatic; PX-866 po 5 mg/kg Q3D × 3): 14% | Alone log cell kill (Panc-1 pancreatic; PX-866 po 5 mg/kg Q3D × 3): 0 | Combined Growth delay days (A-549 lung; [13]): 10 days | Combined TGI % (A-549 lung; [13]): 58% | Combined log cell kill (A-549 lung; [13]): 1.0 | Alone Growth delay days (A-549 lung; [14]): 3 days | Alone TGI % (A-549 lung; [14]): 27% | Alone log cell kill (A-549 lung; [14]): 0.30 | Combined Growth delay days (HT-29 colon [3]; [15]): 6 days | Combined TGI % (HT-29 colon [3]; [15]): 56% | Combined log cell kill (HT-29 colon [3]; [15]): 0.5 | Combined Growth delay days (HT-29 colon [3]; [16]): 8 days | Combined TGI % (HT-29 colon [3]; [16]): 63% | Combined log cell kill (HT-29 colon [3]; [16]): 0.7 | Alone Growth delay days (HT-29 colon [3]; PX-866 iv 10 mg/kg Q2D × 3): 0 days | Alone TGI % (HT-29 colon [3]; PX-866 iv 10 mg/kg Q2D × 3): 11% | Alone log cell kill (HT-29 colon [3]; PX-866 iv 10 mg/kg Q2D × 3): 0.3 | Alone Growth delay days (HT-29 colon [3]; PX-866 po 2.5 mg/kg Q2D × 3): 1 days | Alone TGI % (HT-29 colon [3]; PX-866 po 2.5 mg/kg Q2D × 3): 29% | Alone log cell kill (HT-29 colon [3]; PX-866 po 2.5 mg/kg Q2D × 3): 0.1 | IC50 (p110β/p85α): > 300 nM | IC50 (p110δ/p85α): 2.7 nM | IC50 (p120γ): 9 nM | IC50 [4]: 25 nM | enhancement of the growth inhibition by gefitinib (A-549 cells): did not enhance | effect upon tumor phospho-EGFR ([5]; PX-866 3 mg/kg po every other day for 5 days): no significant effect | effect upon tumor phospho-EGFR ([5]; PX-866 12 mg/kg iv every other day for 5 days): no significant effect | effect upon tumor phospho-EGFR ([5]; combination of gefitinib and PX-866): inhibited both | ALT ([6]; PX-866 1.5 mg/kg po every other day for 14 doses): 65.6 ± 27.5 U/l | AST [6, 17]: 140.5 ± 35.2 U/l | Hb [6, 17]: 14.6 ± 0.3 g/dL | Weight change [6, 17]: 3.9 ± 0.6 g | ALT ([6]; PX-866 3 mg/kg po every other day for 14 doses): 47.6 ± 16.8 U/l | AST [6, 18]: 152.0 ± 47.2 U/l | Hb [6, 18]: 14.7 ± 0.4 g/dL | LY [6, 18]: 5.2 ± 3.9 K/μl | MO [6, 18]: 9.2 ± 3.6 K/μl | Plt [6, 18]: 1665 ± 227 K/μl | gain in body weight as % of the control weight gain ([6]; PX-866 3 mg/kg po): 28% | ALT ([6]; PX-866 10 mg/kg iv every other day for 14 doses): 35.5 ± 11.7 U/l | AST [6, 19]: 105.2 ± 19.2 U/l | Hb [6, 19]: 14.4 ± 0.1 g/dL | LY [6, 19]: 1.8 ± 0.5 K/μl | MO [6, 19]: 1.1 ± 0.2 K/μl | Ne [6, 19]: 14.0 ± 2.7 K/μl | Plt [6, 19]: 1390 ± 43 K/μl | WBC [6, 19]: 14.6 ± 4.2 K/μl | glucose [6, 19]: 76.2 ± 3.6 mg/dL | gain in body weight as % of the control weight gain ([6]; PX-866 10 mg/kg iv): 83% | time for changes in body weight, plasma glucose and blood cell counts to return to normal after treatment stopped ([6]; scid mice, long term PX-866): ≤ 9 days | change in any other blood elements [7]: no significant change | neutrophil counts ([7]; ±S.E., n=4): 3.7±1.8 K/:l | duration of increase in plasma insulin levels [8]: up to 5 hr | nonfasting glucose levels [9]: 269.4 ± 27.8 mg/dL | antitumor activity with bevacizumab [10]: significantly increased the antitumor activity of bevacizumab
